Consider 88 compounds from ChEMBL document CHEMBL1122107, “Structure-antitumor activity relationships of 9-anilinoacridines using pattern recognition” (1982).

The subject of this assay is L1210. The assay is described as follows: Tumor cell selectivity determined as maximal percent increase in life span (ILSmax) at LD10 dosage level in L1210 cells. Type of assay: functional, Mus musculus.

The structures appear in SMILES notation. Where “and” joins values, the source holds several entries; their conditions need not be identical. Equal entries are not always repeated.

As to `CCCCS(=O)(=O)Nc1ccc(Nc2c3ccccc3nc3cc([N+](=O)[O-])ccc23)cc1`, the ILSmax was found to be 110%.
Next, `NCCCCCCc1ccc(N=c2c3ccccc3[nH]c3ccccc23)cc1`: 25%; `O=C(O)COc1ccc(Nc2c3ccccc3nc3ccccc23)cc1`: 25%; `CCCNC(=O)c1ccc(Nc2c3ccccc3nc3ccccc23)cc1`: 25%.
Consider `CC(C(N)=O)S(=O)(=O)Nc1ccc(Nc2c3ccccc3nc3ccccc23)cc1` (stereo not drawn), for which the ILSmax was found to be 25%.
As to `Cc1cc(C(=O)O)ccc1Nc1c2ccccc2nc2ccccc12`, the ILSmax was 25%.
`CCS(=O)(=O)Nc1ccc(Nc2c3ccccc3nc3cc(Cl)ccc23)c(OC)c1` yielded an ILSmax of 95%.
The compound `NCC(=O)NCCS(=O)(=O)Nc1ccc(Nc2c3ccccc3nc3cc([N+](=O)[O-])ccc23)cc1` showed an ILSmax of 170%.
Consider `N=C(N)NCCCCS(=O)(=O)Nc1ccc(Nc2c3ccccc3nc3cc([N+](=O)[O-])ccc23)cc1`, for which the ILSmax came out at 110%.
On to `O=C(O)CCc1ccc(NC(=O)Nc2ccc(N=c3c4ccccc4[nH]c4ccccc34)cc2)cc1`, for which the ILSmax was 125%.
`CC(=O)Nc1ccc2c(Nc3ccc(NS(C)(=O)=O)cc3)c3ccc(Cl)cc3nc2c1` showed an ILSmax of 60%.
Compound `O=C(O)CCCCc1ccc(Nc2c3ccccc3nc3ccccc23)cc1` returned an ILSmax of 187%.
Turning to `NCCC(=O)NCCS(=O)(=O)Nc1ccc(Nc2c3ccccc3nc3ccccc23)cc1`, the ILSmax came out at 25%.
`CCS(=O)(=O)Nc1ccc(Nc2c3ccccc3nc3c(C(N)=O)cccc23)c(OC)c1` came in with an ILSmax of 166%.
In turn, `O=C(O)CCCCCCCCCc1ccc(Nc2c3ccccc3nc3ccccc23)cc1` had an ILSmax of 75%.
The result for `COc1cc(NS(C)(=O)=O)ccc1Nc1c2cccc(C)c2nc2c(C)c(N)ccc12` reads 80%; that for `O=C(Nc1ccc(N=c2c3ccccc3[nH]c3ccccc23)cc1)Nc1ccc(C(=O)O)cc1`, 85%.
On to `COc1cc(NS(C)(=O)=O)ccc1Nc1c2ccc([N+](=O)[O-])cc2nc2c(C)cccc12`, for which the ILSmax was 72% and 113%.
`CS(=O)(=O)Nc1ccc(N=c2c3ccccc3[nH]c3cc([N+](=O)[O-])ccc23)cn1` returned an ILSmax of 72%.
Compound `Cc1cc(NS(C)(=O)=O)ccc1Nc1c2ccccc2nc2c(C(N)=O)cccc12` returned an ILSmax of 68%.
With `CCCC(=O)N(c1ccc(Nc2c3ccccc3nc3cc(NC(C)=O)ccc23)cc1)S(C)(=O)=O`, the ILSmax came to 95%.
Next, `Nc1ccc2c(Nc3ccc(NC(=O)c4ccccc4)cc3)c3ccccc3nc2c1`: 115%; `COc1cc(N)ccc1Nc1c2ccccc2nc2ccccc12`: 25% and 66%; `O=C(Nc1ccc(Nc2c3ccccc3nc3ccccc23)cc1)OCC(O)CO` (stereo not drawn): 70%.
`CC(=O)Nc1ccc2c(Nc3ccc(NS(=O)(=O)CCCNC(=N)N)cc3)c3ccc([N+](=O)[O-])cc3nc2c1` showed an ILSmax of 160%.
Turning to `O=S(=O)(Cc1ccc(Nc2c3ccccc3nc3ccccc23)cc1)Nc1ccccn1`, the ILSmax is given as 98%.
`CS(=O)(=O)N1CCN(c2ccc(Nc3c4ccccc4nc4ccccc34)cc2)CC1` displayed an ILSmax of 70%.
Next, `COc1cc(NS(C)(=O)=O)ccc1Nc1c2ccccc2nc2cc(C(C)C)ccc12`: 40%; `Nc1ccc(S(=O)(=O)Nc2ccc(Nc3c4ccccc4nc4cc(Cl)ccc34)cc2)cc1`: 50%.
The result for `O=C(O)CCCCCCCc1ccc(Nc2c3ccccc3nc3ccccc23)cc1` reads 75%; that for `CCCCCS(=O)(=O)Nc1ccc(Nc2c3ccccc3nc3c(C(=O)NCCCC)cccc23)c(OC)c1`, 45%; that for `O=C(O)c1ccc(Nc2c3ccccc3nc3ccccc23)cc1`, 90%.
Compound `CC(=O)Nc1ccc(S(=O)(=O)Nc2ccc(Nc3c4ccccc4nc4ccccc34)cc2)cc1` displayed an ILSmax of 151%.
In turn, `CNc1ccc2c(Nc3ccc(C(=O)O)cc3)c3ccccc3nc2c1` gave an ILSmax of 25%.
Regarding `CCc1ccc2c(Nc3ccc(CC(=O)O)cc3)c3ccccc3nc2c1`, the ILSmax amounted to 200%.
The compound `NCCCS(=O)(=O)c1ccc(Nc2c3ccccc3nc3cc([N+](=O)[O-])ccc23)cc1` showed an ILSmax of 95%.
The result for `Cc1cc(NS(C)(=O)=O)ccc1Nc1c2ccccc2nc2c(N)cccc12` reads 120%; that for `CCOc1cccc2c(Nc3ccc(NS(C)(=O)=O)cc3)c3ccccc3nc12`, 85%.
The result for `CS(=O)(=O)Nc1ccc(Nc2c3ccccc3nc3cc([N+](=O)[O-])ccc23)cc1` reads 69%; that for `CCCCCCC(=O)N(c1ccc(Nc2c3ccccc3nc3cc(NC(C)=O)ccc23)cc1)S(C)(=O)=O`, 100%.
With `CN(C)Cc1ccc(Nc2c3ccccc3nc3ccccc23)cc1`, the ILSmax stood at 25%.
As for `O=[N+]([O-])c1ccccc1Nc1c2ccccc2nc2ccccc12`, the ILSmax is recorded as 25%.
With `CCCNc1ccc(Nc2c3ccccc3nc3ccccc23)cc1`, the ILSmax was found to be 25%.
With `COc1cc(NS(C)(=O)=O)ccc1Nc1c2ccccc2nc2cc(I)ccc12`, the ILSmax is on record as 74%.
On to `CCOc1ccccc1Nc1c2ccccc2nc2ccccc12`, for which the ILSmax was 25%.
The compound `CS(=O)(=O)Nc1ccccc1Nc1c2ccccc2nc2ccccc12` returned an ILSmax of 25%.
Next, `CCN(CC)c1ccc(Nc2c3ccccc3nc3ccccc23)cc1`: 25%; `CCCCS(=O)(=O)Nc1ccc(Nc2c3ccccc3nc3c(OC)cccc23)c(OC)c1`: 63%.
`Cc1cccc2c(Nc3ccc(NS(C)(=O)=O)cc3)c3ccc(N)cc3nc12`: the ILSmax stood at 110%.
For the compound `Cc1cccc2c(Nc3ccc(NS(C)(=O)=O)cc3)c3ccc([N+](=O)[O-])cc3nc12`, the ILSmax was 120% and 130%.
The result for `Cc1cc(N)ccc1N=c1c2ccccc2[nH]c2ccccc12` reads 76%.
Next, `COc1cc(NS(C)(=O)=O)ccc1Nc1c2ccccc2nc2cc(Br)c(N)cc12`: 99%.
As for `CCCCCCS(=O)(=O)Nc1ccc(Nc2c3ccccc3nc3cc(NC(C)=O)ccc23)cc1`, the ILSmax stood at 42%.
`O=C(O)CCCCCc1ccc(NC(=O)Nc2ccc(Nc3c4ccccc4nc4ccccc34)cc2)cc1`: the ILSmax turned out to be 60%.
The result for `COc1ccc2c(Nc3ccc(NS(C)(=O)=O)cc3)c3ccc(N)cc3nc2c1` reads 105%; that for `COc1cc(NS(C)(=O)=O)ccc1N=c1c2ccccc2[nH]c2ccc(C(C)(C)C)cc12`, 25%; that for `COc1ccc2c(Nc3ccc(NS(C)(=O)=O)cc3OC)c3ccc(Cl)cc3nc2c1`, 50%.
`COc1cc(NS(C)(=O)=O)ccc1Nc1c2ccccc2nc2c(OCCO)cccc12` came in with an ILSmax of 105%.
Compound `CCCCCS(=O)(=O)Nc1ccc(Nc2c3ccccc3nc3cc([N+](=O)[O-])ccc23)c(OC)c1` gave an ILSmax of 72%.
In turn, `Cc1c([N+](=O)[O-])ccc2c(Nc3ccc(NS(C)(=O)=O)cc3)c3ccccc3nc12` had an ILSmax of 70%.
The result for `Cc1cccc2c(Nc3ccc(NS(=O)(=O)CCCCN)cc3)c3cccc(C)c3nc12` reads 72%; that for `N=C(N)NCCS(=O)(=O)Nc1ccc(Nc2c3ccc(N)cc3nc3ccc(N)cc23)cc1`, 85%.
For the compound `CC(C)CC(=O)Nc1ccc(Nc2c3ccccc3nc3ccccc23)cc1`, the ILSmax was found to be 105%.
Next, `CCCS(=O)(=O)Nc1ccc(Nc2c3ccccc3nc3cc(NC(C)=O)ccc23)cc1`: 115%; `O=C(Cc1ccccc1)Nc1ccc(Nc2c3ccccc3nc3ccccc23)cc1`: 25%.
`Cc1cc(NS(C)(=O)=O)ccc1Nc1c2ccc([N+](=O)[O-])cc2nc2c(C)c(C)ccc12` returned an ILSmax of 60%.
For the compound `CNc1ccc2c(Nc3ccc(NS(C)(=O)=O)cc3)c3cccc(C)c3nc2c1`, the ILSmax was 170%.
`Nc1ccc(CCS(=O)(=O)Nc2ccc(Nc3c4ccccc4nc4ccccc34)cc2)cc1` had an ILSmax of 25%.
On to `CCCC(=O)N(c1ccc(Nc2c3ccccc3nc3c(C)cccc23)cc1)S(C)(=O)=O`, for which the ILSmax amounted to 75%.
Compound `CNc1ccc2c(Nc3ccc(NS(C)(=O)=O)cc3)c3cccc(C)c3nc2c1C` displayed an ILSmax of 70%.
`CS(=O)(=O)c1ccc(S(=O)(=O)Nc2ccc(Nc3c4ccccc4nc4ccccc34)cc2)cc1`: the ILSmax stood at 128%.
Regarding `Cc1cccc2c(Nc3ccc(NS(C)(=O)=O)cc3)c3cc(N)c(Br)cc3nc12`, the ILSmax turned out to be 120%.
The result for `CCCCCC(=O)Nc1ccc(Nc2c3ccccc3nc3ccccc23)cc1` reads 110%; that for `COc1cc(NS(C)(=O)=O)ccc1Nc1c2ccc(C)cc2nc2cc([N+](=O)[O-])ccc12`, 92%; that for `COc1ccc2c(Nc3ccc(NS(C)(=O)=O)cc3)c3ccc([N+](=O)[O-])cc3nc2c1`, 60%.
The compound `CC(=O)Nc1ccccc1Nc1c2ccccc2nc2ccccc12` registered an ILSmax of 25%.
Compound `CN(c1ccc(N=c2c3ccccc3[nH]c3cc(N)ccc23)cc1)S(C)(=O)=O` registered an ILSmax of 100%.
The result for `Oc1cccc(Nc2c3ccccc3nc3ccccc23)c1` reads 25%; that for `Nc1ccc(S(=O)(=O)Nc2ccc(Nc3c4ccccc4nc4ccccc34)cc2)cc1`, 100%; that for `NS(=O)(=O)c1ccccc1Nc1c2ccccc2nc2ccccc12`, 25%.
In turn, `CN(c1ccc(Nc2c3ccccc3nc3ccccc23)cc1)S(C)(=O)=O` registered an ILSmax of 65%.
`COc1ccc(Nc2c3ccccc3nc3ccccc23)cc1` gave an ILSmax of 25%.
The result for `CCc1ccccc1Nc1c2ccccc2nc2ccccc12` reads 25%; that for `COc1cc(NS(C)(=O)=O)ccc1Nc1c2ccccc2nc2c(C(=O)NCCO)cccc12`, 100%.
`COc1ccc2c(Nc3ccc(NS(C)(=O)=O)cc3)c3ccccc3nc2c1` had an ILSmax of 107%.
Next, `CS(=O)(=O)Nc1ccc(Nc2c3ccccc3nc3ccc(N)cc23)cc1`: 50%; `CC(=O)Nc1ccc2c(Nc3ccc(NS(C)(=O)=O)cc3)c3ccccc3nc2c1`: 60%; `COc1cc(NS(C)(=O)=O)ccc1Nc1c2ccccc2nc2c(OC)cccc12`: 110%.
